In US20230348506A1, “MACROCYCLIC PANTETHEINE DERIVATIVES AND USES THEREOF” (VectivBio Comet AG, priority 2019, published 2023):

How the values were obtained:
Type in all cases: cell-based, human
[1] = tested on: Methylmalonic Acidemia (MMA) Primary fibroblasts (Tsi 5224 Trans-Hit Bio, 21498 Telethon Network of Genetic Biobanks); assay: Measurement of ATP (ATPlite assay); conditions: 10 μM compound for 2 hours
Protocol: Primary adherent fibroblasts were cultured in minimum essential medium (MEM) (Gibco, 25030081) supplemented with 2 mM L-Glutamine (Gibco, 25030081), 15% fetal bovine serum (FBS) (Gibco, 26400044) and 1% penicillin/streptomycin (Gibco, 5140122) at 37° C. and 5% CO2. Cells were collected for either passaging or experiment at ˜70-80% confluence. Cells were obtained by trypsinization and seeded in cell culture microplates either white plate (Thermo Fisher Scientific, 152028) for luminescent measurement or black plate (Thermo Fisher Scientific, 165305) for fluorescent based read out for different assays listed below. Cells were obtained by trypsinization and […] were seeded and allowed to adhere for 16-18 hours to have confluency around 70-80% in the cell well with culture media. After 24 hours prior to measurements (37° C., 5% CO2) media was changed to Dulbecco's Modified Eagle Medium (DMEM, Agilent Seahorse cat #103575-100) with the appropriate supplements (1 mM glucose, 2 mM L-glutamine, 1 mM pyruvate, 10% FBS).
Assay was performed according to manufacturer instructions (ATPlite Assay Perkin Elmer, 6016941). 50 μl of cell lysis buffer was added to each well with cells in 100 μl of media and incubated for 5 mins at RT in an orbital shaker at 700 rpm to lyse the cells and stabilize the ATP. […]

[2] = tested on: MMA Patient fibroblasts (GM01673, Coriell Institute for Medical Research); assay: Mitochondrial fusion and networking (high-content imaging); design: key: Mitochondrial elongation and networking was described as slight, mild or good; Mitochondrial elongation and networking was described as slight, mild or good; Mitochondrial elongation and networking was described as slight, mild or good; conditions: 10 μM compound, 2 hours, compared to vehicle control
Protocol: (§1) Cells were seeded in 96-well plates (density 3000 cells/well) in culture minimum MEM (GIBCO, 10370-021) supplemented with 2 mM L-Glutamine (Thermo Fisher Scientific), 15% FBS (Thermo Fisher Scientific 26400044) and 1% penicillin/streptomycin. Cells were incubated for 48 hours (37° C, 5% CO2), then treated with 10 μM compounds from the present disclosure, 1% DMSO (vehicle) or 5 μM FCCP (control) for 2 hours in fasted conditional medium: Agilent XF DMEM (Agilent 103575-100), pH 7.4 supplemented with 10% FBS (Thermo Fisher Scientific 26400044), 0.03% penicillin/streptomycin 1 mM glucose, 2 mM L-glutamine and 1 mM pyruvate.
(§2) After treatment, media was removed, and cells were stained with 100 μl of 1×mixture dye solution of 1 μg/mL JC-1 (Invitrogen Cat #T3168) and 50 ng/ml MitoTracker deep red (Invitrogen Cat #M22426) at 37° C. for 30 minutes. Next, staining was removed, the cells were washed once with 150 μl PBS, and 150 μl of fasted conditional medium (described above) is added to each well. Analysis was carried out on live cells using a Thermo Scientific CellInsight CX7 LZR High-Content Screening Platform. Mitochondrial elongation and networking was described as slight, mild or good.

[3] = tested on: PA Patient fibroblasts (Tsi 3618 Trans-Hit Bio); assay: as above; design: key: Mitochondrial elongation and networking was described as slight, mild or good; Mitochondrial elongation and networking was described as slight, mild or good; Mitochondrial elongation and networking was described as slight, mild or good; conditions: 10 μM compound, 2 hours, compared to vehicle control
Protocol: as §1, §2

[4] = tested on: CD14+ monocytes differentiated to M1 macrophages; assay: M1 differentiation assay (IL6 by ELISA); conditions: 10 μM compound
Protocol: Monocytes were isolated by positive isolation with CD14+ microbeads (Miltenyi, 130-050-201). Monocytes were 99% viable and were 96% purity as analyzed by FACS and CD14+ (BD, 563561). 100,000 monocytes along with compounds at the dose of 10 and 50 μM were allowed to differentiate to macrophages with 10 ng/ml GMCSF (R&D, 15-GM-050/CF) in RPMI complete media (Invitrogen, 22400089) with 15% FBS (Hyclone SV30087.03) and 1% Penicillin-Streptomycin (Gibco, 15140-122). On day 2 and 4 half the media was refreshed with fresh GM-CSF and compounds at 10 and 50 μM dose. On day 6 the macrophages were matured with GMCSF, IFNγ (R&D 285-IF-100/CF) and LPS (Sigma, L6143) in the presence of 10 μM and 50 μM of compounds. After 24 h, supernatant was collected for the measurement of TNFα (DKW, 1117202) IL6 (DKW, 1110602), IL10 (DKW, 1110003) by ELISA. Macrophages were detached gently on ice with EDTA (Invitrogen, 15575-038) and analyzed by FACS (BD LSR Fortessa, 853492). […]

CC1(C)COC(=O)CCC(=O)SCCNC(=O)CCNC(=O)[C@@H]1O [Compound 206, (R)-15-hydroxy-16,16-dimethyl-1-oxa-6-thia-9,13-diazacycloheptadecane-2,5,10,14-tetraone]
increase of ATP levels [1]: at least 5%
mitochondrial elongation and networking [2]: good
mitochondrial elongation and networking [3]: mild
decrease of levels of IL-6 protein [4]: at least 40%
